Assay results as given in patent US20100120700A1, “METHODS AND COMPOSITIONS FOR TREATING CERVICAL CANCER” (priority 2000, published 2010).
Where “and” joins values, the source holds several entries; their conditions need not be identical. Equal values may be shown once.

Legend:
Assay in all cases: G assay PDZ-PL binding
Details in all cases: peptide 10 uM, protein 5
DLG1 domain 3 = target: T1, DLG1 domain 3 (Homo sapiens, UniProt Q12959)
T1 construct: made in house; host or cells: E. coli (DH5alpha or BL-21)
Procedure: (§1) (1) A PDZ-domain polypeptide is bound to a surface, e.g. a protein binding surface. In a preferred embodiment, a GST/PDZ fusion protein containing one or more PDZ domains is bound to a polystyrene 96-well plate. […] In one embodiment, the GST/PDZ fusion protein is bound via an anti-GST antibody that is coated onto the 96-well plate. Adequate binding to the plate can be achieved when: • a. 100 uL per well of 5 ug/mL goat anti-GST polyclonal antibody (Pierce) in PBS is added to a polystyrene 96-well plate (e.g., Num Polysorb) at 4° C. for 12 hours. • b. The plate is blocked by addition of 200 uL per well of PBS/BSA for 2 hours at 4° C. • c. The plate is washed 3 times with PBS. • d. 50 uL per well of 5 ug/mL GST/PDZ fusion protein) or, as a negative control, GST polypeptide alone (i.e. not a fusion protein) in PBS/BSA is added to the plate for 2 hours at 4° C. • e. The plate is again washed 3 times with PBS. […]
(§2) (3) The binding of the biotinylated peptide to the GST/PDZ fusion protein surface can be detected using a variety of methods and detectors known to one of skill in the art. In one embodiment, 100 uL per well of 0.5 ug/mL streptavidin-horse radish peroxidase (HRP) conjugate dissolved in BSA/PBS is added and allowed to react for 20 minutes at 4° C. The plate is then washed 5 times with 50 mM Tris pH 8.0 containing 0.2% Tween 20, and developed by addition of 100 uL per well of HRP-substrate solution (TMB, Dako) for 20 minutes at room temperature (RT). The reaction of the HRP and its substrate is terminated by addition of 100 uL per well of 1M sulfuric acid, and the absorbance of each well of the plate is read at 450 nm.
(§3) (4) Specific binding of a PL peptide and a PDZ domain polypeptide is determined by comparing the signal from the well(s) in which the PL peptide and PDZ domain polypeptide are combined, with the background signal(s). The background signal is the signal found in the negative control(s). Typically a specific or selective reaction will be at least twice background signal, more typically more than 5 times background, and most typically 10 or more times the background signal. In addition, a statistically significant reaction will involve multiple measurements of the reaction with the signal and the background differing by at least two standard errors, more typically four standard errors, and most typically six or more standard errors. Correspondingly, a statistical test (e.g. a T-test) comparing repeated measurements of the signal with-repeated measurements of the background will result in a p-value<0.05, more typically a p-value<0.01, and most typically a p-value<0.001 or less. As noted, in an embodiment of the “G” assay, the signal from binding of a given PL peptide to immobilized (surface bound) GST polypeptide alone is one suitable negative control (sometimes referred to as “B 1”). Because all measurement are done in multiples (i.e. at least duplicate) the arithmetic mean (or, equivalently, average.) of several measurements is used in determining the binding, and the standard error of the mean is used in determining the probable error in the measurement of the binding. The standard error of the mean of N measurements equals the square root of the following: the sum of the squares of the difference between each measurement and the mean, divided by the product of (N) and (N−1). Thus, in one embodiment, specific binding of the PDZ protein to the platebound peptide is determined by comparing the mean signal (“mean S”) and standard error of the signal (“SE”) for a particular PL-PDZ combination with the mean B1.
(§4) For convenience, the assay conditions described in this section are referred to as the “G’ assay” and the “G” assay,” with the specific conditions described in the preceding section on G assays being referred to as the “G° assay.” The “G′ assay” is identical to the “G° assay” except at step (2) the peptide concentration is 10 uM instead of 20 uM. […]

EBP50 #341.1 domain 1 = target: T2, EBP50 #341.1 domain 1 (Homo sapiens, UniProt O14745)
T2 construct: made in house; host or cells: E. coli (DH5alpha or BL-21)
T2 sequence (O14745 with tags, fused parts or gaps): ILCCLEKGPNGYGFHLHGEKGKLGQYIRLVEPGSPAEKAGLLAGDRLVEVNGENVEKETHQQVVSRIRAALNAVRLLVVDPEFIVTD
Procedure: as §1, §2, §3, §4

FLJ12615 domain 1 = target: T3, FLJ12615 domain 1 (Homo sapiens, UniProt Q8N3R9)
T3 construct: made in house; host or cells: E. coli (DH5alpha, BL21 or JM109)
T3 sequence (Q8N3R9 247-343): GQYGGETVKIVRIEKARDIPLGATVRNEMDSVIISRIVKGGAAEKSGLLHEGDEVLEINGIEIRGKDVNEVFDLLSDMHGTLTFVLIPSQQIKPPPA
Procedure: as §1, §2, §3, §4

INADL domain 3 = target: T4, INADL domain 3 (Homo sapiens, UniProt Q8NI35)
T4 construct: made in house; host or cells: E. coli (DH5alpha, BL21 or JM109)
T4 sequence (Q8NI35 with tags, fused parts or gaps): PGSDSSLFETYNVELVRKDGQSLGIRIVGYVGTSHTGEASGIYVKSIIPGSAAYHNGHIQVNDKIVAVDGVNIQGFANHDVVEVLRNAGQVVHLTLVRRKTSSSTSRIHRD
Procedure: as §1, §2, §3, §4

KIAA0380 #25.8 domain 1 = target: T5, KIAA0380 #25.8 domain 1 (Homo sapiens, UniProt O15085)
T5 construct: made in house; host or cells: E. coli (DH5alpha, BL21 or JM109), vector pGEX-3X
T5 sequence (O15085 45-123): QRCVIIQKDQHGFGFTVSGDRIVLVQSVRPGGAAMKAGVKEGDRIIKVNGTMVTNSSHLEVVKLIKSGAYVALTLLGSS
Procedure: as §1, §2, §3, §4

KIAA0973 #148.4 domain 1 = target: T6, KIAA0973 #148.4 domain 1 (Homo sapiens, UniProt Q9Y2H9)
T6 construct: made in house; host or cells: E. coli (DH5alpha, BL21 or JM109)
T6 sequence (Q9Y2H9 963-1055): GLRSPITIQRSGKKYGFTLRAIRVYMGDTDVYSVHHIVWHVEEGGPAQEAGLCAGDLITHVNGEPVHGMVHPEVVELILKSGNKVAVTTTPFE
Procedure: as §1, §2, §3, §4

KIAA1095 domain 1 = target: T7, KIAA1095 domain 1 (Homo sapiens, UniProt Q9UPQ7)
T7 construct: made in house; host or cells: E. coli (DH5alpha, BL21 or JM109)
T7 sequence (Q9UPQ7 with tags, fused parts or gaps): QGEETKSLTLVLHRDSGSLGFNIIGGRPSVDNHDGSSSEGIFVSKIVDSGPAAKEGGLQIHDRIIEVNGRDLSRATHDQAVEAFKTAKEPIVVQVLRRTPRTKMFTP
Procedure: as §1, §2, §3, §4

KIAA1719 domain 5 = target: T8, KIAA1719 domain 5 (Homo sapiens, UniProt Q9C0E4)
T8 construct: made in house; host or cells: E. coli (DH5alpha or BL-21)
T8 sequence (Q9C0E4 with tags, fused parts or gaps): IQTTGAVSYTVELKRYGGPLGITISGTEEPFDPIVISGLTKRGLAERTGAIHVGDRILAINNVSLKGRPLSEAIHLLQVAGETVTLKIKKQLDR
Procedure: as §1, §2, §3, §4

MUPP1 domain 10 = target: T9, MUPP1 domain 10 (Homo sapiens, UniProt O75970)
T9 construct: made in house; host or cells: E. coli (DH5alpha or BL-21)
T9 sequence (O75970 with tags, fused parts or gaps): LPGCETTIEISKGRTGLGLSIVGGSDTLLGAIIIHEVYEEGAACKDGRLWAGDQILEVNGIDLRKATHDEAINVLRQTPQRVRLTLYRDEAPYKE
Procedure: as §1, §2, §3, §4

MUPP1 domain 7 = target: T10, MUPP1 domain 7 (Homo sapiens, UniProt O75970)
T10 construct: made in house; host or cells: E. coli (DH5alpha, BL21 or JM109)
T10 sequence (O75970 with tags, fused parts or gaps): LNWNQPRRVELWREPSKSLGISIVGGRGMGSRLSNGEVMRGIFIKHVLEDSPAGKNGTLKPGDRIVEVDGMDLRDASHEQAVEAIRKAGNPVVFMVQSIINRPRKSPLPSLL
Procedure: as §1, §2, §3, §4

NeDLG domain 1 = target: T11, NeDLG domain 1 (Homo sapiens, UniProt Q92796, D190E)
T11 construct: made in house; host or cells: E. coli (DH5alpha, BL21 or JM109)
T11 sequence (Q92796 with tags, fused parts or gaps D190E): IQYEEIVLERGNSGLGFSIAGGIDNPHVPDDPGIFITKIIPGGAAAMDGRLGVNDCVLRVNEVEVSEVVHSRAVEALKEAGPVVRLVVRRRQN
Procedure: as §1, §2, §3, §4

PIST domain 1 = target: T12, PIST domain 1 (Homo sapiens, UniProt Q9HD26)
T12 construct: made in house; host or cells: E. coli (DH5alpha or BL-21)
Procedure: as §1, §2, §3, §4

SITAC-18 domain 1 = target: T13, SITAC-18 domain 1 (Homo sapiens, UniProt Q9H190)
T13 construct: made in house; host or cells: E. coli (DH5alpha or BL-21)
T13 sequence (Q9H190 104-195): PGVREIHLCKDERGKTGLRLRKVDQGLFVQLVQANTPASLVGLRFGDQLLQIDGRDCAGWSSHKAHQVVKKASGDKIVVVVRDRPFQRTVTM
Procedure: as §1, §2, §3, §4

SSTRIP domain 1 = target: T14, SSTRIP domain 1 (Homo sapiens, UniProt Q9Y566)
T14 construct: made in house; host or cells: E. coli (DH5alpha, BL21 or JM109)
T14 sequence (Q9Y566 with tags, fused parts or gaps): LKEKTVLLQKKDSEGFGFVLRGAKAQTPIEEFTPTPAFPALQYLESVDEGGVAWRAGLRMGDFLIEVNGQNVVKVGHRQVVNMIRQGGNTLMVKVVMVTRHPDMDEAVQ
Procedure: as §1, §2, §3, §4

20 mer peptide corresponding to the C-terminus of HPV16 E6 (PDZ ligand), biotinylated in binding assays; ends SSRTRRETQL (SEQ ID NO: 13) [HPV E6 #16]
Ave OD (DLG1 domain 3; A450 nm): 0.3975
OD S/N (DLG1 domain 3; vs GST only well): 2.45
Ave OD (EBP50 #341.1 domain 1; A450 nm): 0.43
OD S/N (EBP50 #341.1 domain 1; vs GST only well): 1.65
Ave OD (FLJ12615 domain 1; A450 nm): 0.4605
OD S/N (FLJ12615 domain 1; vs GST only well): 2.24
Ave OD (INADL domain 3; A450 nm): 0.485
OD S/N (INADL domain 3; vs GST only well): 1.86
Ave OD (KIAA0380 #25.8 domain 1; A450 nm): 0.603
OD S/N (KIAA0380 #25.8 domain 1; vs GST only well): 3.58
Ave OD (KIAA0973 #148.4 domain 1; A450 nm): 1.0105 and 0.6885
OD S/N (KIAA0973 #148.4 domain 1; vs GST only well): 6.22 and 5.12
Ave OD (KIAA1095 domain 1; A450 nm): 2.7045 and 1.711
OD S/N (KIAA1095 domain 1; vs GST only well): 13.13 and 7.96
Ave OD (KIAA1719 domain 5; A450 nm): 0.3895
OD S/N (KIAA1719 domain 5; vs GST only well): 1.81
Ave OD (MUPP1 domain 10; A450 nm): 0.3925 and 0.3915
OD S/N (MUPP1 domain 10; vs GST only well): 2.03 and 1.96
Ave OD (MUPP1 domain 7; A450 nm): 0.498
OD S/N (MUPP1 domain 7; vs GST only well): 1.61
Ave OD (NeDLG domain 1; A450 nm): 0.5165
OD S/N (NeDLG domain 1; vs GST only well): 1.98
Ave OD (PIST domain 1; A450 nm): 0.3855
OD S/N (PIST domain 1; vs GST only well): 1.96
Ave OD (SITAC-18 domain 1; A450 nm): 0.3975
OD S/N (SITAC-18 domain 1; vs GST only well): 1.63
Ave OD (SSTRIP domain 1; A450 nm): 0.467
OD S/N (SSTRIP domain 1; vs GST only well): 3.28
